Assays:
[1] = target: T1, DNA topoisomerase 1 (Homo sapiens) (UniProt P11387); test: Stability constant for DNA topoisomerase I complex in competitive DNA assay
T1 sequence (whole entry): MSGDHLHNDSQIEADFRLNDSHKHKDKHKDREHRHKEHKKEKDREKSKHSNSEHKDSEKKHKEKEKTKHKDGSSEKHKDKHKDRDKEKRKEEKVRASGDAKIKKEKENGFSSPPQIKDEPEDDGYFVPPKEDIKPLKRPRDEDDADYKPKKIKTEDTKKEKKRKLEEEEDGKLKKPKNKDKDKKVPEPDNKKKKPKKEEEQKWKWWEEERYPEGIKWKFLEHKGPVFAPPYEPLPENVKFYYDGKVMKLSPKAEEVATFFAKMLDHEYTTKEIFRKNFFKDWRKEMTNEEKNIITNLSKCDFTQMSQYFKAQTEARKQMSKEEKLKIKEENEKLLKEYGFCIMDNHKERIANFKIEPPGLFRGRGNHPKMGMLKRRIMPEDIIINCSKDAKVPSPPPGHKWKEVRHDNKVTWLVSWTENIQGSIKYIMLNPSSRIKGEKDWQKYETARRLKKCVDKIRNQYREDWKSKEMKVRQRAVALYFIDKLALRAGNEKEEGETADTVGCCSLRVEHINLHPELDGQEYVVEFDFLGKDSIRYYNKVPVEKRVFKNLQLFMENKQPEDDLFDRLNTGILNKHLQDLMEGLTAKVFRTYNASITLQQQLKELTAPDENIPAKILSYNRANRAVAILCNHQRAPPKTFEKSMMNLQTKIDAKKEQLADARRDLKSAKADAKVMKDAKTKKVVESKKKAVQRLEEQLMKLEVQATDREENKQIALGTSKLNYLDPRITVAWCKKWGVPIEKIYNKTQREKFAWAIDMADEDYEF

HeLa = test: Concentration required to inhibit growth of human cervical HeLa carcinoma cell line; assay type: functional, cell-based
PC-3 = test: Concentration required to inhibit growth of human prostate PC-3 carcinoma cell line; assay type: functional, cell-based
DNA topoisomerase 1 = target: T2, DNA topoisomerase 1 (Homo sapiens, UniProt P11387); test: Effective concentration against DNA topoisomerase I
T2 sequence (P11387 whole entry): T1 sequence (whole entry)

| SMILES | K app [1] | IC50 (HeLa; Homo sapiens, HeLa) | IC50 (PC-3; Homo sapiens, PC-3) | EC50 (DNA topoisomerase 1) | IC50 (HeLa; hela) | IC50 (PC-3; pc-3) |
| --- | --- | --- | --- | --- | --- | --- |
| CC[C@@]1(O)C(=O)OCc2c1cc1n(c2=O)Cc2c-1nc1cc3c(cc1c2-c1ccc(C(F)(F)F)cc1)OCO3 | 0.007 min⁻¹ | 6.9 nM | 13.4 nM | 160 nM |  |  |
| CC[C@@]1(O)C(=O)OCc2c1cc1n(c2=O)Cc2c-1nc1cc3c(cc1c2C1CCCC1)OCO3 | 0.02 min⁻¹ | 6.2 nM | 9 nM | 190 nM |  |  |
| CC[C@@]1(O)C(=O)OCc2c1cc1n(c2=O)Cc2c-1nc1cc3c(cc1c2-c1ccccc1)OCO3 | 0.005 min⁻¹ | 8.1 nM | 8.1 nM | 150 nM |  |  |
| CC[C@@]1(O)C(=O)OCc2c1cc1n(c2=O)Cc2c-1nc1ccccc1c2CC(C)C | 0.11 min⁻¹ | 1310 nM | 170 nM | 450 nM |  |  |
| CC[C@@]1(O)C(=O)OCc2c1cc1n(c2=O)Cc2cc3ccccc3nc2-1 [CAMPTOTHECIN] | 0.14 min⁻¹ | 117 nM | 1410 nM |  |  |  |
| CCCCc1c2c(nc3ccccc13)-c1cc3c(c(=O)n1C2)COC(=O)[C@]3(O)CC | 0.05 min⁻¹ | 37.3 nM | 48.7 nM | 200 nM |  |  |
| CCc1c2c(nc3ccc(O)cc13)-c1cc3c(c(=O)n1C2)COC(=O)[C@]3(O)CC (stereo in doubt; form 2) [7-ETHYL-10-HYDROXYCAMPTOTHECIN] |  |  |  | 70 nM | 38.8 nM | 35.3 nM |
| CCc1c2c(nc3cc4c(cc13)OCO4)-c1cc3c(c(=O)n1C2)COC(=O)[C@]3(O)CC | 0.03 min⁻¹ | 13.9 nM | 10 nM | 270 nM |  |  |
| CC[C@@]1(O)C(=O)OCc2c1cc1n(c2=O)Cc2cc3cc4c(cc3nc2-1)OCO4 | 0.05 min⁻¹ | 9.6 nM | 8.1 nM |  |  |  |
| CC[C@@]1(O)C(=O)OCc2c1cc1n(c2=O)Cc2c-1nc1cc3c(cc1c2-c1ccc(Cl)cc1)OCO3 | 0.008 min⁻¹ | 26 nM | 8.2 nM | 1160 nM |  |  |
| CC[C@@]1(O)C(=O)OCc2c1cc1n(c2=O)Cc2c-1nc1cc3c(cc1c2-c1ccc(F)cc1)OCO3 | 0.004 min⁻¹ | 16.2 nM | 6.3 nM | 1390 nM |  |  |
| CCc1c2c(nc3ccc(O)cc13)-c1cc3c(c(=O)n1C2)COC(=O)[C@]3(O)CC (stereo in doubt; form 1) | 0.06 min⁻¹ |  |  |  |  |  |
| CC[C@@]1(O)C(=O)OCc2c1cc1n(c2=O)Cc2c-1nc1cc3c(cc1c2Cc1ccccc1)OCO3 | 0.05 min⁻¹ | 20.5 nM | 18.9 nM | 1950 nM |  |  |
| CC[C@@]1(O)C(=O)OCc2c1cc1n(c2=O)Cc2c-1nc1ccccc1c2Cc1ccccc1 | 0.24 min⁻¹ | 80.9 nM | 51.2 nM | 4560 nM |  |  |
| CCc1c2c(nc3ccc(O)cc13)-c1cc3c(c(=O)n1C2)COC(=O)[C@]3(O)CC (stereo in doubt; form 2) | 0.12 min⁻¹ |  |  |  |  |  |
| CC[C@@]1(O)C(=O)OCc2c1cc1n(c2=O)Cc2c-1nc1ccccc1c2C(C)(C)C | 0.26 min⁻¹ | 204 nM | 308 nM | 240 nM |  |  |
| CC[C@@]1(O)C(=O)OCc2c1cc1n(c2=O)Cc2c-1nc1cc3c(cc1c2-c1ccc(C)cc1)OCO3 | 0.005 min⁻¹ | 2 nM | 8.3 nM | 1040 nM |  |  |
| CCc1c2c(nc3ccc(O)cc13)-c1cc3c(c(=O)n1C2)COC(=O)[C@]3(O)CC (stereo in doubt; form 1) [7-ETHYL-10-HYDROXYCAMPTOTHECIN] |  | 25.7 nM | 35.6 nM | 320 nM |  |  |
| CC[C@@]1(O)C(=O)OCc2c1cc1n(c2=O)Cc2c-1nc1cc3c(cc1c2C1CCCCC1)OCO3 | 0.03 min⁻¹ | 9 nM | 11.5 nM | 1000 nM |  |  |

— ChEMBL document CHEMBL1137998 (Bioorg Med Chem Lett, 2004)
